Data: patent publication US5169769A, “Method of hydroxylating substituted 3-aminopyridinones using mammalian tissue” (Merck & Co., Inc., priority 1991, dated 1992)

Molecular target: T1, recombinant HIV reverse transcriptase (HIV RTR) (Human immunodeficiency virus type 1 group M subtype B, UniProt P04585)
T1 construct: recombinant HIV reverse transcriptase (HIV RTR)
Experiment: Reverse Transcriptase Assay: incorporation of tritiated deoxyguanosine monophosphate into acid-precipitable cDNA
Type: biochemical
Conditions: purified HIV RTR; poly r(C).oligo d(G)12-18 and dGTP at about Km; 37° C. for 45 minutes; read-out: calculated IC50
Method: Reverse Transcriptase Assay
The assay measures the incorporation of tritiated deoxyguanosine monophosphate by recombinant HIV reverse transcriptase (HIV RTR) (or other RT) into acid-precipitable cDNA at the Km values of dGTP and poly r(C).cndot.oligo d(G)12-18. Compounds (I) and (II) inhibit this incorporation.
Thirty uL of a reaction mixture containing equal volumes of: 500 mM Tris.cndot.HCl (pH 8.2), 300 mM MgCl2, 1200 mM KCl, 10 mM DTT, 400 μg/mL poly r(c).cndot.oligo d(G) [prepared by dissolving 1.5 mg (25 U) poly r(C).cndot.oligo d(G) in 1.5 ml sterile distilled H2 O and diluting to 400 μg/ml], 0.1 μCi/μl [^3 H] dGTP, 160 μM dGTP, were added to 10 μl sterile distilled H2 O, 2.5 μl of potential inhibitor. Ten μL of 3.2 nM purified HIV RTR were added to start the reaction. The mixture was incubated at 37° C. for 45 minutes.
After incubation was complete, the tubes were cooled in ice for 5 minutes. Ice-cold 13% TCA containing 10 mM NaPPi (200 μl) was added and the mixture incubated on ice for 30 minutes. The precipitated cDNA was removed by filtration using presoaked glass filters [TCA, NaPPi ]. The precipitate was then washed with 1N HCl, 10 mM NaPPi. The filter discs were then counted in a scintillation counter. […]
Compounds (I) and (II) were evaluated using the methodology described above.

Row | SMILES | IC50
1 | CCc1cc(NCc2nc3c(C)ccc(C)c3o2)c(=O)[nH]c1CO [Compound (II), 3-[(4,7-dimethylbenzoxazol-2-yl)methylamino]-5-ethyl-6-hydroxymethyl-2(1H)-pyridinone] | ~33 nM
2 | Cc1[nH]c(=O)c(NCc2nc3c(C)ccc(C)c3o2)cc1C(C)O (centres unmarked) [Compound (I), 3-[(4,7-dimethylbenzoxazol-2-yl)methylamino]-5-(1-hydroxyethyl)-6-methyl-2(1H)-pyridinone] | ~405 nM
